Patent US10548937B2, “Composition for the treatment of arthropathies and osteoarthritis” (Kolinpharma S.p.A., priority 2014, dated 2020)

How the values were obtained:
Assay type in all cases: cell-based
human chondrocytes = assay: MTT test (Test 0), cell vitality; settings: overnight incubation, 'likewise' = did not prove toxic
Method: (§1) Human chondrocytes (Lonza, cat. N. CC-2550) derived from knee tissue were cultured in Chondrocyte Growth Medium (Lonza, cat. N. CC-3216) prepared according to the manufacturer's instructions with the addition of R3-insulin-like growth factor-1 [R3-IGF-1], human recombinant fibroblast growth factor beta [hrFGF-β], transferrin, insulin, foetal bovine serum [FBS] and gentamicin/amphotericin-B [GA]. The cells were maintained in an incubator at 37° C. and 5% CO2 and seeded every 3-4 days at a density of about 1×10^4 cells/cm^2.
(§2) After about 16-20 hours of incubation, the cells were processed for the various tests.
This colorimetric test is based on the transformation of the tetrazolium salt MTT (yellow) into formazan (violet), by the succinate-tetrazolium reductase system, which belongs to the mitochondrial respiratory chain and is active only in metabolically active cells. […] An insoluble colorant forms during this period, which, after dissolving by adding dissolution solution to the samples (10% SDS in 10 mM HCl) and after incubating overnight in an incubator, may be quantified by reading the absorbance of the samples at 595 nm (using 750 nm as reference wavelength). The measured absorbance correlates directly with the number of live cells.
To exclude a possible toxic effect attributable to the chosen incubation protocol, the cell vitality was quantified by means of an MTT test. […]

[1] = test system: TNFα production by human chondrocytes; assay: ELISA test (Test 1a), TNFα in culture medium
Method: as §1, §2
In the “sandwich” ELISA test, a 96-well plate is covered with a monoclonal antibody specific for a given cytokine. […] The addition of a sulfuric acid solution changes the colour of the solution from blue to yellow, blocking the development of the colour and allowing accurate reading of the absorbance of the samples at 450 nm.
For the purposes of the treatment, the medium was harvested and stored at −80° C. until the time of use for the test. […] The concentrations of cytokines released into the culture medium were then expressed as pg of cytokine/mg of total protein of the sample. […]
Release into the culture medium of the pro-inflammatory cytokines TNFα, IL-6 and IL-8 by the human chondrocytes was evaluated both in the absence and in the presence of stimulation with IL-1β for 16 hours. […]

[2] = test system: nuclear translocation of NF-kB in human chondrocytes; assay: Nuclear translocation of NF-kB (Test 1b), immunolabelling and confocal microscope; settings: IL-1β about 20 hours
Method: as §1, §2
The chondrocytes were seeded onto 13 mm glass slides and, once they had reached confluence, were incubated overnight with the various treatments. […]
Images of the samples thus prepared were acquired on a confocal microscope (TCS SPE UV, Leica Microsystems) and were analysed with the software ImageJ v1.47h (http://imagej.nih.gov/ij) for the quantification of the nuclear translocation of NF-kB (Noursadeghi M et al., Journal of Immunological Methods, 2008, vol. 329, pages 194-200). […] These masks were then applied to the original NF-kB signals to calculate the fluorescence intensity in the nucleus and in the cytoplasm from the histograms of the intensities created with ImageJ. The mean fluorescence intensity ratio between the nucleus and the cytoplasm was then calculated for each sample.

| SMILES | toxicity to chondrocytes (MTT, cell vitality) (human chondrocytes; 100 μM) | effect on the production of TNFα ([1]; 100 μM in the culture medium) | effect on the translocation of NF-kB to the nucleus ([2]; diclofenac 100 μM) | toxicity to chondrocytes (MTT, cell vitality) (human chondrocytes; 10 μM) | effect on the production of TNFα ([1]; 10 μM in the culture medium) | effect on the translocation of NF-kB to the nucleus ([2]; celecoxib 10 μM) |
| --- | --- | --- | --- | --- | --- | --- |
| O=C(O)Cc1ccccc1Nc1c(Cl)cccc1Cl [diclofenac] | likewise for the incubation with the positive controls | no effect | no significant effect | – | – | – |
| Cc1ccc(-c2cc(C(F)(F)F)nn2-c2ccc(S(N)(=O)=O)cc2)cc1 [celecoxib] | – | – | – | likewise for the incubation with the positive controls | no effect | no significant effect |
